These results are taken from publication PMC2009863, “Pharmacokinetic considerations in testing hypoxic cell radiosensitizers in mouse tumours” (British Journal of Cancer, 1979).

For data set [1] the following is noted: cited from earlier work.
For data set [2] the following is noted: cited from earlier work; for tumour concentration as % of corresponding plasma concentration: clinical studies, HPLC, after MIS administration, ref Wiltshire et al.
Data set [3] is described as follows: Whole blood MIS and Ro-05-9963 by HPLC after MIS in control, sham-operated and kidney-ligated mice. The note with it: for half-life: mouse, in vivo, 5 mmol/kg, plasma half-life. An excerpt:
(§1) Several groups are now pursuing such a goal (Adams, 1977; Brown et al., 1978; Wardman, 1977). […] Specifically the two ques- tions were: (a) How much does the plasma half-life affect the peak plasma level? (b) How much does the plasma half-life affect the tumour/plasma ratio of drug concentrations? MATERIALS AND METHODS A description of the procedures for implanta- tion of tumours, and irradiation and assay of the viability of the tumour cells has been published previously (Brown, 1975). Brieflv, the EMT6/St/lu tumour was transplanted into 3-month-old, syngeneic BALB/c female mice, weighing 20-25 g, and irradiated at a diameter of 6-7 mm. Immediately after irradiation the tumours were removed and minced. The only modification was that the single-cell suspensions were prepared by a 30 min disaggregation using an enzyme "'cock- tail" of 0-05% pronase, 0.02% DNAase and 21 0 02% collagenase (Brown et al., in prepara- tion). Cell viability was assayed by plating appropriate dilutions of the tumour cells into Waymouth's medium containing 15% foetal calf serum in polystyrene Petri dishes, and counting colonies 13 days later. […] Bilateral kidney ligation was performed on anaesthetized mice by exteriorizing the kidneys through a 1 cm incision in the skin and abdominal wall and tying a ligature around the renal artery and vein at the renal pelvis. The abdominal incision, which was adjoining and parallel to the line of attach- ment of the abdominal wall with the dorsal muscles, was then closed tightly with 4 or 5 stitches, and the skin incision closed with metal clips. The sham operation was identical in all respects except for ligation of the renal artery and vein. […] Plasma (or whole blood) and tumour levels of 2-nitroimidazoles were determined in different ways in the two laboratories rep- resented. In the first method, represented in Tables I and II and Fig. 1, tumour and plasma levels were determined on killing of individual mice, and were measured spectrophotomet- rically using UV absorption at 318 nm. This measures the total concentration of all 2-nitroimidazoles in the sample. The pro- cedure used was a modification of that described by Chapman et al. (1974). To measure plasma levels, 0 4 ml of plasma (collected from heparinized whole blood by cardiac puncture at the time of killing) was added to 2-6 nil absolute ethanol. The mixture was vortexed for 1 min, allowed to stand for 10 min and then centrifuged for 5 min at high speed (1000 g). Tumour levels were determined by preparing a 20% (w/v) homogenate of tumour in distilled water, and adding a 0 4 ml aliquot of homogenate to 2-6 ml absolute ethanol as described above. […] At appropriate times after MIS administration, serial blood samples were taken from the tail of the same mouse. Duplicate 5 /A samples were collected in Microcap pipettes (Drummond Scientific Company), mixed with 45 µl water and stored at -20?C. Finally (usually at 10-12-5 h) the mice were bled by cardiac puncture and the undiluted heparinized whole blood was stored at -20?C.

On data set [4], the source says:
Several groups are now pursuing such a goal (Adams, 1977; Brown et al., 1978; Wardman, 1977). […] Specifically the two ques- tions were: (a) How much does the plasma half-life affect the peak plasma level? (b) How much does the plasma half-life affect the tumour/plasma ratio of drug concentrations? MATERIALS AND METHODS A description of the procedures for implanta- tion of tumours, and irradiation and assay of the viability of the tumour cells has been published previously (Brown, 1975). Brieflv, the EMT6/St/lu tumour was transplanted into 3-month-old, syngeneic BALB/c female mice, weighing 20-25 g, and irradiated at a diameter of 6-7 mm. Immediately after irradiation the tumours were removed and minced. The only modification was that the single-cell suspensions were prepared by a 30 min disaggregation using an enzyme "'cock- tail" of 0-05% pronase, 0.02% DNAase and 21 0 02% collagenase (Brown et al., in prepara- tion). Cell viability was assayed by plating appropriate dilutions of the tumour cells into Waymouth's medium containing 15% foetal calf serum in polystyrene Petri dishes, and counting colonies 13 days later. […] Bilateral kidney ligation was performed on anaesthetized mice by exteriorizing the kidneys through a 1 cm incision in the skin and abdominal wall and tying a ligature around the renal artery and vein at the renal pelvis. […] Plasma (or whole blood) and tumour levels of 2-nitroimidazoles were determined in different ways in the two laboratories rep- resented. In the first method, represented in Tables I and II and Fig. 1, tumour and plasma levels were determined on killing of individual mice, and were measured spectrophotomet- rically using UV absorption at 318 nm. […] Tumour levels were determined by preparing a 20% (w/v) homogenate of tumour in distilled water, and adding a 0 4 ml aliquot of homogenate to 2-6 ml absolute ethanol as described above. […]

Data set [5] can be described thus: Acute toxicity LD50/2d of MIS and Ro-05-9963. The note with it: mouse, in vivo. The text has this: Several groups are now pursuing such a goal (Adams, 1977; Brown et al., 1978; Wardman, 1977). […] Specifically the two ques- tions were: (a) How much does the plasma half-life affect the peak plasma level? (b) How much does the plasma half-life affect the tumour/plasma ratio of drug concentrations? MATERIALS AND METHODS A description of the procedures for implanta- tion of tumours, and irradiation and assay of the viability of the tumour cells has been published previously (Brown, 1975). Brieflv, the EMT6/St/lu tumour was transplanted into 3-month-old, syngeneic BALB/c female mice, weighing 20-25 g, and irradiated at a diameter of 6-7 mm. Immediately after irradiation the tumours were removed and minced. […] Plasma (or whole blood) and tumour levels of 2-nitroimidazoles were determined in different ways in the two laboratories rep- resented. In the first method, represented in Tables I and II and Fig. 1, tumour and plasma levels were determined on killing of individual mice, and were measured spectrophotomet- rically using UV absorption at 318 nm. […] Tumour levels were determined by preparing a 20% (w/v) homogenate of tumour in distilled water, and adding a 0 4 ml aliquot of homogenate to 2-6 ml absolute ethanol as described above. […]

The nature of data set [6]: Plasma and tumour levels of total 2-nitroimidazoles, UV spectrophotometric assay at 318 nm, EMT6 tumour-bearing mice, normal or bilateral kidney ligation. The note with it: for Plasma concn. / Tumour concn.: Table I, 5 mmol/kg i.p.; for Plasma concn. / Tumour concn. / Plasma concentration / Tumour concentration: individual mice; for Plasma concentration, Mean / Tumour concentration, Mean / Plasma concentration / Tumour concentration: Table II, 5 mmol/kg.
Description: as §1

On the set-up of data set [7]: method as in Adams et al., 1976; Brown et al., 1978. The note with it: ref Adams et al., 1976; Brown et al., 1978; cited from earlier work.
Another data set relates to V-79 cells. The note with it: cited from earlier work.
Setting [8] is: BKL Yes, 38 min after injection.

Values joined by “and” are separate entries in the source; they are usually repeats but may differ in a detail not shown here. Identical values can stand only once. Like-named read-outs stand apart in the source and are kept apart here.

For the molecule `COCC(O)Cn1ccnc1[N+](=O)[O-]` (stereo not drawn) [MIS, 1-(2-nitroimidazol-1-yl)-3-methoxypropan-2-ol], in data set [1] (MT mouse tumour and some normal mouse tissues, particularly at less than 6 h, ref Flockhart et al. (1978c)), the “uptake of (2-14C) MIS as % of plasma concentration” value was “less than 100%”. Moreover, in data set [1] (different mouse tumours, ref McNally et al. (1978)), the “tumour concentration as % of that in blood” value is reported as 18-72%. Further, the “tumour concentration as % of corresponding plasma concentration” value in data set [2] (1978, Workman et al., 1978b) is 50-70%. Moreover, in data set [2] (human tumours, ref Gray et al., 1976, Dische et al., 1977, Urtasun et al.), the “tumour concentration as % of plasma levels” value is recorded as 42-107%. The half-life in man in data set [2] (plasma, ref Foster et al., 1975, Dische et al., 1977, Wiltshire et al., 1978, Workman et al., 1978b) is about 12 h. Also, the half-life in data set [3] (BALB/c, bilateral kidney ligation before injection) is 10 to 11 h; in data set [3] (BALB/c, normal mice), about 2 h; in data set [3] (ip, bilateral kidney ligation before injection), 10 h. In data set [3] (normal and sham-operated mice after MIS), the “glucuronide conjugates of MIS and Ro-05-9963 in plasma” value was “not found”. Also, in data set [4] (9 h after MIS injection, controls), the “rectal temperature below uninjected mice” value is at most 3 °C. For the same molecule, the “rectal temperature below the uninjected level” value in data set [4] (9 h after MIS injection, kidney-ligated mice) came out at 7 °C. The same molecule had a rectal temperature drop in data set [4] (first 5 h after MIS injection, all 3 groups) of 5.0 °C. The same molecule had an LD50 at 2 d in data set [5] of 1830 mg/kg.

For `O=[N+]([O-])c1nccn1CC(O)CO` (stereo not drawn) [Ro-05-9963, 1-(2-nitroimidazol-1-yl)-2,3-pro-pandiol], the “tumour concentration as % of corresponding plasma concentration” value in data set [2] (1978, Workman et al., 1978b) was 50-70%. Moreover, the “proportion of Ro-05-9963 to total non-conjugated 2-nitroimidazoles” value amounted to 5% in data set [3] (38 min after MIS injection, control and nephrectomized mice); 22% in data set [3] (6.5 h after MIS injection, nephrectomized mice); 24% in data set [3] (6.5 h after MIS injection, normal mice). Moreover, the “tumour levels lower than plasma concentration” value in data set [6] (EMT6 tumour) is 30-40%. The same molecule returned a plasma half-life in data set [6] (Fig. 1, normal BALB/c mice, equal peak plasma levels: MIS 5 mmol/kg, Ro-05-9963 10 mmol/kg i.p.) of 0.55 h. The Plasma concn. is 2 to 8 mM and 2 to 4 mM and 2 to 6 mM in data set [6] (30 min after inj.); 2-4 mM (2×) and 2-5 mM and 0-88 mM in data set [6] (37.5 min after inj.); 1 to 5 mM and 0 to 38 mM and 1 to 2 mM in data set [6] (45 min after inj.). The Tumour concn. in data set [6] (30 min after inj.) is 0-77 mM and 1.5 mM and 1-1 mM; in data set [6] (37.5 min after inj.) it was 2-4 mM and 1-7 mM (2×); in data set [6] (45 min after inj.), 0 to 74 mM and 0 to 76 mM and 0 to 25 mM. Further, the “Plasma concentration, Mean” value in data set [6] (BKL No, 38 min after injection) is 1000 to 4000 µM; in data set [6] (BKL Yes, 6 h after injection), 4000 to 8000 µM. In addition, the “Tumour concentration, Mean” value is 1-1 mM in data set [6] (BKL No, 38 min after injection) and 2 to 8 mM in data set [6] (BKL Yes, 6 h after injection). For the same molecule, the Plasma concentration was 0 to 42 mM and 0 to 51 mM and 1 to 93 mM and 2 to 16 mM and 2 to 36 mM and 1 to 27 mM in data set [6] (BKL No, 38 min after injection); 4.7 mM (2×) and 5.4 mM and 4-9 mM in data set [6] (setting [8]); 5.9 mM and 4 to 6 mM and 4 to 7 mM in data set [6] (BKL Yes, 6 h after injection). The Tumour concentration in data set [6] (BKL No, 38 min after injection) is 0 to 24 mM and 0 to 25 mM and 2 to 35 mM and 1 to 30 mM and 1 to 58 mM and 0 to 90 mM; in data set [6] (setting [8]) it was 4.3 mM and 2 to 4 mM and 2 to 8 mM and 1 to 6 mM; in data set [6] (BKL Yes, 6 h after injection) it was 2 to 3 mM and 2 to 9 mM and 3 to 7 mM. Also, the “plasma and tumour concentrations less than those of MIS, factor” value in data set [6] (equimolar injected doses, normal mice) is reported as at least 2. Also, in data set [7], the “lipophilicity compared with MIS” value is on record as “considerably less lipophilic”. Further, the “radiosensitizing effectiveness compared with MIS” value in the data set on V-79 cells (V-79 cells in vitro, ref Adams et al. (1976)) is given as “slightly less effective”; with V-79 cells (in vitro, ref Flockhart et al. (1968b)), “slightly more so”.

What is called half-life is how long it takes for the measured level to halve. Read a high half-life as slow loss. As usually defined, the LD50 is the dose expected to kill half of the subjects tested. Read a low LD50 as greater toxicity.
